Measured values published in patent US20240238305A1, “FORMULATIONS OF 3-((3-(4-(2-(ISOBUTYLSULFONYL)PHENOXY)-3-(TRIFLUOROMETHYL)PHENYL)-1,2,4-OXADIAZOL-5-YL)METHYL)-5,5-DIMETHYL-1-(2-MORPHOLINOETHYL)IMIDAZOLIDINE-2,4-DIONE” (Novartis AG, priority 2021, published 2024).

Columns and labels:
SZ95 sebocytes = test: Sentinel Lipid Assay (SLA), global desaturation index; assay type: cell-based, human
Procedure: The sentinel lipid assay was used quantify the change in the global desaturation index in SZ95 sebocytes upon administration of Compound 1. The assay measures a smaller subset of lipid analytes in meibum (termed “sentinel lipids”) which would model the global changes the population of both saturated and desaturated lipids in the cells. In order to define this smaller subset of lipids, a complete lipid profile was recorded on dose response curves (eight levels from 4 nM to 10 uM) of Compound 1. […]
A medium throughput assay was created using this reduced set of sentinel lipids. […] Lipids were extracted from the cells using a 1:1 mixture of methylene chloride/methanol containing 10 nM of deuterated standards of triglycerides, which are used as internal standards for quantitating the lipid abundance. […] The abundance of the sentinel lipids and the internal standards are measured using multiple reaction monitor mode (MRM) on a triple quadrupole mass spectrometer. […] In order to compare compounds from multiple batches with one another, the measure raw desaturation index was normalized by dividing it by the desaturation index of the DMSO dosed cells, and all data was assessed as the fraction by which the compound increases the desaturation index above 1. […]

SCD1 = test: Measurement of SCD1 expression in SZ95-SCD1-HiBit cells (HiBiT assay); assay type: cell-based, human
Procedure: SCD1 expression levels in SZ95 cells were quantitated using the HiBiT system (Promega) in which a small peptide sequence (SmBiT) with a larger protein (LgBiT) reconstitutes luciferase activity and can generate a luminescent signal used for quantitation. […] The gRNA targeting sequence used was […] (SEQ ID NO: 3) and the SCD1 insertion oligonucleotide encoding the SmBiT sequence was:
SZ95-SCD1-HiBit cells were seeded in 384-well cell culture white plates at a density of 3000 cells/[…]. Water was added to edge wells to avoid evaporation. Cells were incubated in a humidified incubator with 5% CO2 at 37° C. overnight. Tested compounds were diluted at a ratio of 1:3 in DMSO using an Agilent BRAVO Automated Liquid Handling Platform and, after further serial dilutions, added to cells at final concentrations starting from 18 μM. 2-(3-(3-((2-chloro-3-(trifluoromethyl)benzyl)(2,2-diphenylethyl)amino)propoxy)phenyl)acetic acid was used as a reference compound in each plate. Cells in the assay plate were incubated in a humidified incubator with 5% CO2 at 37° C. for 48h.
The assay plates were removed from the incubator and allowed to equilibrate to room temperature. […] Plates were placed on an orbital shaker at a speed of 300-600 rpm for 10 min at room temperature, and read on an EnVision Plate Reader using luminescence detection with a 1 second read time. […]

[1] = normalized to reference compound Amax of 100%

## O=C(O)Cc1cccc(OCCCN(Cc2cccc(C(F)(F)F)c2Cl)CC(c2ccccc2)c2ccccc2)c1 [Reference, 2-(3-(3-((2-chloro-3-(trifluoromethyl)benzyl)(2,2-diphenylethyl)amino)propoxy)phenyl)acetic acid]
SZ95 sebocytes; SZ95 cells, 72h, compared to reference compound
  SLA Amax: 96.0
SZ95 sebocytes; [1]
  SLA Normalized Amax: 100.0%
SCD1; SZ95-SCD1-HiBit cells, 48h, compared to reference compound
  HiBit Amax: 95.1
SCD1; [1]
  HiBit Normalized Amax: 100.0%
